What all share (assay type): cell-based
Assay [1] deals with Mycobacterium marinum in broth (Mm-broth). Put plainly: Antibacterial assay, growth of Mm in broth (Mm-broth, luminescence). The following applies: for IC50 / MIC: Mycobacterium marinum; for IC50: read-out: IC50 Mm-broth; for activity on Mm-broth (in words): at respective maximal tested concentration; for normalized residual growth of Mm-broth: 20 μM, vehicle = 1, baseline = 0.

The subject of assay [2] is Mycobacterium marinum (Mm) in infection of Dictyostelium discoideum (Mm-inf). The assay can be described thus: Anti-infective assay, growth of Mm during infection of Dd (Mm-inf, luminescence). The following applies: for IC50: 72 h; for activity at 20 µM: vehicle = 1, baseline = 0, hit cut-off <0.5; for pro-infective effect on Mm-inf (in words): between 0.4 and 3.3 μM.
Assay [3] concerns Dictyostelium discoideum (Dd-inf). The assay can be described thus: microbe, parasite or virus in culture.
[4] abbreviates: read-out: IC50 Mm-inf, 72 h, AUC of luminescence normalized to vehicle, 4PL regression.
Where [5] appears, read: at respective maximal tested concentration.
The mark [6] stands for this setting: 20 μM, read-out: normalized residual growth of Mm-inf.

“Also recorded” adds a separate entry of the source. Like-named read-outs stand apart in the source and are kept apart here.

As usually defined, the IC50 is the concentration that gives 50% inhibition. The term MIC denotes the lowest concentration that inhibits growth of the organism. `COc1nc2ccc(Br)cc2cc1[C@@H](c1ccccc1)[C@@](O)(CCN(C)C)c1cccc2ccccc12` [bedaquiline]: the results for the half-maximal inhibitory concentration (IC50) in assay [1] (72 h) and in assay [2] (setting [4]) were 1.6 µM and 4 µM, respectively. In assay [1] (72 h, read-out: MIC Mm-broth), the MIC was determined as 3.3 µM. In assay [1], the “activity on Mm-broth (in words)” value is reported as “sterilizing activity”. In addition, the “activity on Mm-inf (in words)” value in assay [2] (setting [5]) is “sterilizing activity”.

As to `Oc1ccc(/C=C/c2cc(O)cc(O)c2)cc1` [compound 1, resveratrol], in assay [2] (dose-response curve), the “activity on Mm-inf (in words)” value is reported as “lack of activity”.

For the compound `COc1cc(O)cc(/C=C/c2ccc(O)cc2)c1` [compound 3, pinostilbene], the “activity on Mm-inf (in words)” value in assay [2] (dose-response curve) is given as “active on Mm-inf, at high concentrations (>20 μM)”.

Consider `COc1cc(/C=C/c2cc(O)cc(O)c2)ccc1O` [compound 4, isorhapontigenin], for which the “activity on Mm-inf (in words)” value in assay [2] (dose-response curve) is “lack of activity”.

As to `Oc1ccc(C2Oc3ccc(C=Cc4cc(O)cc(O)c4)cc3C2c2cc(O)cc(O)c2)cc1` (stereo not drawn) [compound 11, trans-δ-viniferin], in assay [1], the “normalized residual growth of Mm-broth” value worked out at 1. For the same compound, in assay [2] (setting [6]), the activity at 20 µM was found to be 110%.

In the case of `COc1cc(C=Cc2ccc3c(c2)C(c2cc(OC)cc(OC)c2)C(c2ccc(O)cc2)O3)cc(OC)c1` (stereo not shown) [compound 21], the “normalized residual growth of Mm-broth” value in assay [1] worked out at 1. Also, in assay [2] (setting [6]), the activity at 20 µM was determined as 140%.

As to `Oc1ccc([C@H]2Oc3ccc(/C=C\c4cc(O)cc(O)c4)cc3[C@@H]2c2cc(O)cc(O)c2)cc1` [compound 55], the “activity on Mm-inf (in words)” value in assay [2] (at 20 μM) was “inactive”.

Consider `COc1cc(OC)cc([C@H]2c3cc(/C=C\c4cc(O)cc(O)c4)ccc3O[C@@H]2c2ccc(O)cc2)c1` [compound 56], for which the IC50 in assay [2] (setting [4]) stood at 19.7 µM.

Take `COc1cc(/C=C\c2ccc3c(c2)[C@H](c2cc(O)cc(O)c2)[C@@H](c2ccc(O)cc2)O3)cc(OC)c1` [compound 57]: the concentration for half-maximal inhibition (IC50) in assay [2] (setting [4]) is 9.8 µM.

On to `COc1cc(/C=C\c2ccc3c(c2)[C@H](c2cc(OC)cc(OC)c2)[C@@H](c2ccc(O)cc2)O3)cc(OC)c1` [compound 58], for which, in assay [2] (at 20 μM), the “activity on Mm-inf (in words)” value is “inactive”.

Take `COc1ccc([C@H]2Oc3ccc(/C=C/c4cc(O)cc(O)c4)cc3[C@@H]2c2cc(O)cc(OC)c2)cc1` [compound 62]: the IC50 in assay [2] (AUC of luminescence normalized to vehicle, 4PL regression, read-out: IC50 Mm-inf) was found to be 13.4 µM. The “lowest measured value of Dd-inf (normalized residual growth)” value in assay [3] (dose-response curve) came out at 0.42.

`COc1cc([C@H]2Oc3c(OC)cc(/C=C/c4cc(O)cc(O)c4)cc3[C@@H]2c2cc(O)cc(O)c2)ccc1O` [compound 65]: in assay [2] (at 20 μM), the “activity on Mm-inf (in words)” value is listed as “pro-infective activity”.

Regarding `Oc1ccc(-c2oc3ccc(/C=C/c4cc(O)cc(O)c4)cc3c2-c2cc(O)cc(O)c2)cc1` [compound 66], the IC50 in assay [2] (setting [4]) was found to be 29.7 µM; in assay [3] (Dictyostelium discoideum, 72 h, read-out: IC50 Dd-inf (Dd growth)), 26.2 µM. Moreover, the activity at 20 µM in assay [2] (read-out: normalized residual growth of Mm-inf, 20 μM) amounted to 55%.

Regarding `COc1cc(OC)cc(-c2c(-c3ccc(O)cc3)oc3ccc(/C=C/c4cc(O)cc(O)c4)cc23)c1` [compound 67], in assay [2] (setting [4]), the IC50 came to 19.6 µM.

In the case of `COc1cc(/C=C/c2ccc3oc(-c4ccc(O)cc4)c(-c4cc(O)cc(O)c4)c3c2)cc(OC)c1` [compound 68], in assay [2] (setting [4]), the IC50 is 20.1 µM.

As to `COc1cc(/C=C/c2ccc3oc(-c4ccc(O)cc4)c(-c4cc(OC)cc(OC)c4)c3c2)cc(OC)c1` [compound 69], the “activity on Mm-inf (in words)” value in assay [2] (dose-response curve) is “remained inactive”.

Take `NNC(=O)c1ccncc1` [isoniazid, reference compound]: the values for the half-maximal inhibitory concentration (IC50) in assay [1] (72 h) and in assay [2] (setting [4]) were 10 µM and 11 µM, respectively. Moreover, the MIC in assay [1] (72 h, 7H9 broth, 32°C, read-out: MIC Mm-broth) came to 30 µM; in assay [1] (converted from μM, read-out: MIC in broth), 4.1 µg/mL; in assay [2] (converted from μM, read-out: MIC in infection), 4.1 µg/mL; in assay [2] (lowest concentration with normalized residual growth plus one SD ≤0, 72 h, read-out: MIC Mm-inf), 30 µM. For the same compound, the “activity on Mm-broth (in words)” value in assay [1] is “sterilizing activity”. Moreover, in assay [2] (setting [5]), the “activity on Mm-inf (in words)” value is listed as “sterilizing activity”. The “pro-infective effect on Mm-inf (in words)” value in assay [2] is listed as “slight pro-infective effect”.

On to `NC(=O)c1cnccn1` [pyrazinamide, reference compound], for which, in assay [1] (screen at 20 μM or dose-response curve), the “activity on Mm in broth (in words)” value is reported as “no activity against Mm”. The “pro-infective effect on Mm-inf (in words)” value in assay [2] is listed as “slight pro-infective effect”. Moreover, the “activity on Mm-inf (in words)” value in assay [2] (dose-response curve) was “lack of activity; also recorded: no activity against Mm”.
